Experimental data taken from patent US8796245B2 (TetraPhase Pharmaceuticals, Inc., priority 2008, dated 2014).
In brackets after ≈: the same amount, converted by molar mass.

Assays:
Format in all cases: cell-based
[1] = system: S. aureus ATCC 29213 (SA101, MSSA); test: Minimum inhibitory concentration assay, SA101; settings: Staphylococcus aureus; S. aureus ATCC 29213, MSSA control; read-out: MICs SA101
Protocol: (§1) Frozen bacterial strains were thawed and subcultured onto Mueller Hinton Broth (MHB) or other appropriate media (Streptococcus requires blood and Haemophilus requires hemin and NAD). Following incubation overnight, the strains were subcultured onto Mueller Hinton Agar and again incubated overnight. […] Isolated colonies were selected to prepare a starting inoculum equivalent to a 0.5 McFarland standard. The starting inoculum was diluted 1:125 using MHB for further use. Test compounds were prepared by dilution in sterile water to a final concentration of 5.128 mg/mL. Antibiotics (stored frozen, thawed and used within 3 hours of thawing) and compounds were further diluted to the desired working concentrations.
(§2) The assays were run as follows. Fifty μL of MHB was added to wells 2-12 of a 96-well plate. One hundred […] of appropriately diluted antibiotics was added to well 1. Fifty μL of antibiotics was removed from well 1 and added to well 2 and the contents of well 2 mixed by pipetting up and down five times. Fifty μL of the mixture in well 2 was removed and added to well 3 and mixed as above. Serial dilutions were continued in the same manner through well 12. Fifty μL was removed from well 12 so that all contained 50 μL. Fifty μL of the working inoculum was then added to all test wells. A growth control well was prepared by adding 50 μL of working inoculum and 50 μL of MHB to an empty well. The plates were then incubated at 37° C. overnight, removed from the incubator and each well was read on a plate reading mirror. The lowest concentration (MIC) of test compound that inhibited the growth of the bacteria was recorded.

[2] = system: E. faecalis ATCC 29212 (EF103); test: Minimum inhibitory concentration assay, EF103; settings: Enterococcus faecalis, ATCC29212, read-out: MICs EF103
Protocol: as §1, §2

[3] = system: E. cloacae ATCC 13047 (EC108); test: Minimum inhibitory concentration assay, EC108; settings: Enterobacter cloacae, ATCC13047; E. cloacae ATCC 13047, wt; read-out: MICs EC108
Protocol: as §1, §2

[4] = system: S. aureus ATCC 13709 (SA100, MSSA, Smith strain); test: Minimum inhibitory concentration assay, SA100; settings: Staphylococcus aureus; S. aureus ATCC 13709, MSSA Smith strain; read-out: MICs SA100
Protocol: as §1, §2

[5] = system: S. aureus SA161 (tet resistant: tet(M) ribosomal protection); test: Minimum inhibitory concentration assay, SA161; settings: Staphylococcus aureus, read-out: MICs SA161
Protocol: as §1, §2

[6] = system: S. pneumoniae ATCC 49619 (SP106); test: Minimum inhibitory concentration assay, SP106; settings: Streptococcus pneumoniae, ATCC49619; S. pneumoniae ATCC 49619, wt; read-out: MICs SP106
Protocol: as §1, §2

[7] = system: K. pneumoniae ATCC 13883 (KP109); test: Minimum inhibitory concentration assay, KP109; settings: Klebsiella pneumoniae, ATCC13883; K. pneumoniae ATCC 13883, wt; read-out: MICs KP109
Protocol: as §1, §2

[8] = system: P. aeruginosa ATCC 27853 (PA111); test: Minimum inhibitory concentration assay, PA111; settings: Pseudomonas aeruginosa, ATCC27853; P. aeruginosa ATCC 27853, wt; read-out: MICs PA111
Protocol: as §1, §2

[9] = system: E. faecalis EF159 (tet resistant: tetM); test: Minimum inhibitory concentration assay, EF159; settings: Enterococcus faecalis, read-out: MICs EF159
Protocol: as §1, §2

[10] = system: E. coli ATCC 25922 (EC107); test: Minimum inhibitory concentration assay, EC107; settings: Escherichia coli, ATCC25922; E. coli ATCC 25922, wt; read-out: MICs EC107
Protocol: as §1, §2

[11] = system: S. aureus SA158 (tet resistant: tetK efflux); test: microbe, parasite or virus in culture; settings: Staphylococcus aureus, read-out: MICs SA158
Protocol: as §1, §2

[12] = system: E. coli EC155 (tet resistant: tetA efflux); test: microbe, parasite or virus in culture; settings: Escherichia coli; E. coli tet resistant: tetA (efflux); read-out: MICs EC155
Protocol: as §1, §2

[13] = system: K. pneumoniae KP153 (tet resistant: tetA efflux); test: microbe, parasite or virus in culture; settings: Klebsiella pneumoniae, read-out: MICs KP153
Protocol: as §1, §2

[14] = system: S. pneumoniae SP160 (tet resistant: tet M); test: Minimum inhibitory concentration assay, SP160; settings: Streptococcus pneumoniae, read-out: MICs SP160
Protocol: as §1, §2

[15] = system: A. baumanii ATCC 19606 (AB110); test: Minimum inhibitory concentration assay, AB110; settings: Acinetobacter baumannii, ATCC19606; A. baumanii ATCC 19606, wt; read-out: MICs AB110
Protocol: as §1, §2

Row | Compound | MIC [1] [µg/mL] | MIC [2] [µg/mL] | MIC [3] [µg/mL] | MIC [4] [µg/mL] | MIC [5] [µg/mL] | MIC [6] [µg/mL] | MIC [7] [µg/mL] | MIC [8] [µg/mL] | MIC [9] [µg/mL] | MIC [10] [µg/mL] | MIC [11] [µg/mL] | MIC [12] [µg/mL] | MIC [13] [µg/mL] | MIC [14] [µg/mL] | MIC [15] [µg/mL]
1 | COC[C@H]1CCCN1CC(=O)Nc1cc(F)c2c(c1O)C(=O)C1=C(O)[C@]3(O)C(=O)C(C(N)=O)=C(O)[C@@H](N(C)C)[C@@H]3C[C@@H]1C2 [Compound 42] | 0.5 (≈ 0.83 µM) | 0.5 (≈ 0.83 µM) | 16 (≈ 26.6 µM) | 1 (≈ 1.66 µM) | 2 (≈ 3.32 µM) | 0.125 (≈ 0.207 µM) | 8 (≈ 13.3 µM) | > 32 | 1 (≈ 1.66 µM) | 4 (≈ 6.64 µM) | 1 (≈ 1.66 µM) | 16 (≈ 26.6 µM) | 16 (≈ 26.6 µM) | 0.0625 (≈ 0.104 µM) | 0.5 (≈ 0.83 µM)
2 | CN(C)[C@@H]1C(O)=C(C(N)=O)C(=O)[C@@]2(O)C(O)=C3C(=O)c4c(O)c(NC(=O)CN5CC[C@H](F)C5)cc(F)c4C[C@H]3C[C@@H]12 [Compound 36] | 0.25 (≈ 0.434 µM) | 0.25 (≈ 0.434 µM) | 4 (≈ 6.94 µM) | 0.5 (≈ 0.867 µM) | 0.5 (≈ 0.867 µM) | ≤ 0.0156 | 4 (≈ 6.94 µM) | > 32 | 0.25 (≈ 0.434 µM) | 2 (≈ 3.47 µM) | 1 (≈ 1.73 µM) | 32 (≈ 55.5 µM) | 32 (≈ 55.5 µM) | ≤ 0.0156 | 0.125 (≈ 0.217 µM)
3 | COCCCNCC(=O)Nc1cc(F)c2c(c1O)C(=O)C1=C(O)[C@]3(O)C(=O)C(C(N)=O)=C(O)[C@@H](N(C)C)[C@@H]3C[C@@H]1C2 [Compound 27] | 2 (≈ 3.47 µM) | 2 (≈ 3.47 µM) | 16 (≈ 27.7 µM) | 2 (≈ 3.47 µM) | 4 (≈ 6.94 µM) | 0.125 (≈ 0.217 µM) | 8 (≈ 13.9 µM) | > 32 | 4 (≈ 6.94 µM) | 4 (≈ 6.94 µM) | 16 (≈ 27.7 µM) | 32 (≈ 55.5 µM) | 32 (≈ 55.5 µM) | 0.5 (≈ 0.867 µM) | 16 (≈ 27.7 µM)
4 | CN(C)CC(=O)Nc1cc(F)c2c(c1O)C(=O)C1=C(O)[C@]3(O)C(=O)C(C(N)=O)=C(O)[C@@H](N(C)C)[C@@H]3C[C@@H]1C2 [Compound 23] | ≤ 0.0156 | ≤ 0.0156 | 1 (≈ 1.88 µM) | 0.5 (≈ 0.939 µM) | 0.125 (≈ 0.235 µM) | ≤ 0.0156 | 0.5 (≈ 0.939 µM) | 8 (≈ 15 µM) | 0.0313 (≈ 0.0588 µM) | 0.125 (≈ 0.235 µM) | 0.25 (≈ 0.469 µM) | 8 (≈ 15 µM) | 8 (≈ 15 µM) | ≤ 0.0156 | 0.125 (≈ 0.235 µM)
5 | CN(C)[C@@H]1C(O)=C(C(N)=O)C(=O)[C@@]2(O)C(O)=C3C(=O)c4c(O)c(NC(=O)CNc5ccccc5)cc(F)c4C[C@H]3C[C@@H]12 [Compound 30] | 2 (≈ 3.44 µM) | 2 (≈ 3.44 µM) | > 32 | 1 (≈ 1.72 µM) | 4 (≈ 6.89 µM) | 2 (≈ 3.44 µM) | > 32 | > 32 | 2 (≈ 3.44 µM) | > 32 | 2 (≈ 3.44 µM) | > 32 | > 32 | 4 (≈ 6.89 µM) | 8 (≈ 13.8 µM)
6 | CN(C)[C@@H]1C(O)=C(C(N)=O)C(=O)[C@@]2(O)C(O)=C3C(=O)c4c(O)c(NC(=O)CN5CC[C@@H](F)C5)cc(F)c4C[C@H]3C[C@@H]12 [Compound 35] | 0.25 (≈ 0.434 µM) | 0.125 (≈ 0.217 µM) | 8 (≈ 13.9 µM) | 0.25 (≈ 0.434 µM) | 0.5 (≈ 0.867 µM) | 0.016 (≈ 0.0278 µM) | 4 (≈ 6.94 µM) | > 32 | 0.25 (≈ 0.434 µM) | 1 (≈ 1.73 µM) | 0.5 (≈ 0.867 µM) | 16 (≈ 27.8 µM) | 8 (≈ 13.9 µM) | 0.016 (≈ 0.0278 µM) | 0.25 (≈ 0.434 µM)
